Laboratory results from patent US11197863B2, “Inhibitors of polo-like kinase 4 (PLK4) for treating pediatric embryonal tumors” (ANN AND ROBERT H. LURIE CHILDREN'S HOSPITAL OF CHICAGO, priority 2017, dated 2021).

Assays:
[1] = molecular target: TEK (Homo sapiens, UniProt Q02763); assay: Kinase activity screening (SelectScreen Kinase Profiling); assay type: biochemical; conditions: 10-point titration
Excerpt: These assays utilized various formats appropriate to the kinase, its substrate and its activity. Formats included the Z-LYTE™ Kinase Assay that determines the differential sensitivity of phosphorylated and non-phosphorylated peptide substrates to proteolytic cleavage using a FRET-based readout, the Adapta™ Universal Kinase Assay that employs a homogeneous, fluorescence-based immunoassay for the detection of ADP produced by kinases and the LanthaScreen™ Eu Kinase Binding Assay that utilizes an Alexa Fluor™ conjugated “tracer” and an Eu-labeled anti-tag antibody to measure binding of a compound to the kinase target [62].

[2] = test system: HFF-SCC058 non-neoplastic human fibroblast cells; assay: Immunofluorescence for gamma-tubulin (centriole number); assay type: cell-based; conditions: 100 and 500 nM
Experimental: (§1) The cells were then blocked in blocking buffer (5% BSA (Jackson Immuno Research Laboratories Inc., USA) in PBST) for 1 hour at RT. The primary antibody ([…] 1:500, Sigma, USA) diluted in 1% BSA in PBST was then added and incubated at 4° C. overnight. Then, the cells were washed with 1×PBS thrice. Secondary antibody (Anti-Rabbit IgG (H+L) F (ab′) 2, 1:500, Sigma, USA) diluted in 1% BSA in PBST was added and incubated at RT for 2 hours. Three time washes with IX PBS were performed. Then, 1 mL of DAPI (Thermo Fisher Scientific, USA) in PBS (0.5 μl of DAPI in 10 ml PBS) was added to the cells and incubated for 10 min at RT. Finally, 3 time washes with 1×PBS were performed and slides were mounted using Mounting Medium (Thermo Fisher Scientific, USA).

[3] = test system: MON, G401, BT-12 and BT-16 cells; assay: Apoptosis by flow cytometry (Annexin V / PI); assay type: cell-based, human; conditions: 100 nM, 48 hours vs 0.1% DMSO
Experimental: Cells were treated with various concentrations of […] and 0.1% DMSO (control) for evaluation of the impact of treatment on induction of apoptosis. Live cells were stained with Annexin V as an indicator of early apoptosis and Propidium Iodide (PI—Thermo Fisher Scientific, USA) for detection of late apoptosis and necrosis, according to manufacturer's instructions (Thermo Fisher Scientific, USA). Flow cytometric analysis was performed on a BD Fortessa instrument (BD Biosciences, USA) within an hour of staining. Data was analyzed using Modfit LT from Verity Software House. All experiments were performed in triplicates.

[4] = Brain to plasma ratio (B:P); assay type: in vivo; conditions: male, CD-1, mouse, brain and plasma, po, 7.5 mg/kg, fasted male CD-1 mice, 4 hours post-dose, average
Experimental: Raw brain-to-plasma ratios (B:P) were determined by dividing the brain concentration in ng/g by the plasma concentration in ng/g (with plasma, density assumed to be of 1 g/mL). The average B:P ratio was determined to be approximately 0.08±0.3 (FIG. 12). No further CFI-400945 pharmacokinetic studies were done as part of this study.
Male CD-1 mice weighing between 20 and 40 grams were fitted with jugular vein cannulas as appropriate and fasted overnight until 4 hours post-dose. Double route of administration (oral and IV) were tested, with a single dose concentration of 7.5 mg/kg. Plasma and brain were sampled at 6 time-points, starting at 30 minutes (n=3 animals/time-point). Brain was extracted at the same plasma sampling time-point from each animal. Both plasma and brain samples were deproteinated. Brain samples were weighted, homogenized and CFI-400945 was extracted. […] The dosing solution was normalized in a matched matrix (mouse plasm) and analyzed in triplicate in the same analytical batch as the incurred samples (Absorption Systems—Exton, Pa.).

[5] = molecular target: Aurora kinase B (Homo sapiens, UniProt Q96GD4); conditions: cited from earlier work
[6] = test system: zebrafish larvae; assay: In vivo toxicity assay in zebrafish larvae
Experimental: Control larvae were exposed to 2% DMSO. Survival and delays in development and morphologic abnormalities were recorded at three time-points (24, 48, and 72 h of treatment). For each condition, groups of 20 larvae were analyzed in triplicates totalizing 420 subjects and 60 controls. Two-way ANOVA was used to analyze the results.

[7] = test system: MON rhabdoid cells; assay: Immunofluorescence for gamma-tubulin (centriole number); assay type: cell-based, human; conditions: 48 hours
Experimental: as §1

[8] = test system: G401, BT-12, BT-16, DAOY and D283 cell lines; assay: as above; assay type: cell-based, human
Experimental: as §1

[9] = test system: DAOY and D283 cells; assay: Colony formation assay, MB cell lines; assay type: cell-based, human; conditions: 50 nM
Experimental: For each cell line, 200 cells were seeded into six-well plates, incubated for 14 days, fixed with formalin, stained with Cresyl violet (ACROS Organics, USA), and the number of colonies counted using Image J software (www.imagej.nih.gov).
For proliferation assay DAOY was plated with 5×10^4 cells per well and D283 was plated with 5×10^5 cells per well.

[10] = test system: MON, G401, BT-12, BT-16 DAOY and D283 cells; assay: Senescence beta galactosidase assay; assay type: cell-based, human; conditions: 100 nM, 48 hours; all cell lines
Experimental: For each cell line, cells were seeded in 6-well plates in triplicates with 100,000 cells per well. Treatment medium was added the next day and incubated for 48 or 72 hrs. After incubation, cells were washed twice with 1×PBS and 1 mL of the Fixation Buffer from the kit was added to each well of the plate and incubated at RT for 5 min. Cells were washed with 1×PBS and 1 mL of staining solution from the kit was added to each well and incubated at 37° C. without CO2 overnight. The next day, the cells were washed with 1×PBS and the numbers of blue stained cells (which indicate senescent cells) and unstained cells were counted in image J (www.imagej.nih.gov). The percentage of senescent cells was calculated.

[11] = test system: RT and MB cell lines; assay: Cell cycle analysis by flow cytometry (polyploidy); assay type: cell-based, human; conditions: multiple RT and MB cell lines
Experimental: Cell cycle evaluation was performed by staining the cells with PI (Thermo Fisher Scientific, USA) according to manufacturer's instructions. […] Data was analyzed using Modfit LT from Verity Software House. Experiments were performed in triplicates.

[12] = test system: CYP450 isoenzymes 1A2, 2B6, 2C8, 2C9, 2C19, 2D6, 2J2, 3A4 and 3A5 (except 3A4 BOMCC); assay: P450 profiling with Vivid substrates; assay type: in vitro ADME; conditions: human, probe Vivid substrates; isoenzymes recommended for testing by FDA guidance except 3A4 BOMCC; 500 nM highest tested concentration

Sequence of TEK (Q02763 23-1124): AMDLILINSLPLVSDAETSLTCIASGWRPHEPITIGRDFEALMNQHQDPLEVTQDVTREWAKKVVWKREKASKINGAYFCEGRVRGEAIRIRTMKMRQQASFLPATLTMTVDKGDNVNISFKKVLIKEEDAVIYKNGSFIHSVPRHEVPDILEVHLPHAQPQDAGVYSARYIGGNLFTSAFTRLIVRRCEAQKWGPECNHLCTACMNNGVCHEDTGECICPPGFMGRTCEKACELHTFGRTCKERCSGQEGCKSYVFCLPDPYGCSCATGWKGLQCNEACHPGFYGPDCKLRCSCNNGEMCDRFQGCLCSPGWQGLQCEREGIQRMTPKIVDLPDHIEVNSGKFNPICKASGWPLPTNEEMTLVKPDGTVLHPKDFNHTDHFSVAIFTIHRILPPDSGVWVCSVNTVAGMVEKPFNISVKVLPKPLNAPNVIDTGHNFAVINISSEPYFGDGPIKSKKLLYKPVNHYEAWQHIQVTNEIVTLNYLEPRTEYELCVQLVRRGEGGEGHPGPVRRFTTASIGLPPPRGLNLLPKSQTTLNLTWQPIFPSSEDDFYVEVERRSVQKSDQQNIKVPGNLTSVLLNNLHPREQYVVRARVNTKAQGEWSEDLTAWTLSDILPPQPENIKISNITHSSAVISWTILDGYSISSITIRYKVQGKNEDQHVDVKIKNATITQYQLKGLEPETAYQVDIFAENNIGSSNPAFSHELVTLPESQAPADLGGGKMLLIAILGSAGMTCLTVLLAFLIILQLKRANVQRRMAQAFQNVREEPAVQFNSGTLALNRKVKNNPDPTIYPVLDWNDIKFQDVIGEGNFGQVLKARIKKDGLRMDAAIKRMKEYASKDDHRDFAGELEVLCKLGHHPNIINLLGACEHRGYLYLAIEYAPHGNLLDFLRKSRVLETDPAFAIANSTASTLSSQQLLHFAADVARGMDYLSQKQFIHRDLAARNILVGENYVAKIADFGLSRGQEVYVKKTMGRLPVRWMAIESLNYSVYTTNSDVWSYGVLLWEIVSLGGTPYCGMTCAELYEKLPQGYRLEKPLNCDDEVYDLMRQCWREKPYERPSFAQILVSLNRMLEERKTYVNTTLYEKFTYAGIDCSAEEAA
Sequence of Aurora kinase B (Q96GD4 whole entry, species assumed): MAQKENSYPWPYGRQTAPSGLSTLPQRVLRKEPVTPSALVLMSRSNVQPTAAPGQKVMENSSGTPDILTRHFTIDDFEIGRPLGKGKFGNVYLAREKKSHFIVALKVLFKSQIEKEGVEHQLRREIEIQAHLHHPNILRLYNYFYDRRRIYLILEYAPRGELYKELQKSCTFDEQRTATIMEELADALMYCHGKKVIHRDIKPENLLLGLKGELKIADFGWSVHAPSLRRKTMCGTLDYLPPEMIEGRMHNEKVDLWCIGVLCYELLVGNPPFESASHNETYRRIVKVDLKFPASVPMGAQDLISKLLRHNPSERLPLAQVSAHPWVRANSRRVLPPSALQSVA

**Q.** For `COc1ccc2c(c1)[C@]1(C[C@H]1c1ccc3c(/C=C/c4ccc(CN5C[C@@H](C)O[C@@H](C)C5)cc4)n[nH]c3c1)C(=O)N2` [CFI-400945], which IC50 [1] is on record?
**A.** The IC50 was 109 nM.

**Q.** What about the “paradoxical effect on centriole number” value [2] of the same molecule?
**A.** The value was “not observed”.

**Q.** What about the “cells undergoing cell death (apoptosis)” value [3] of the same molecule?
**A.** Its value is “significantly higher percentage of cells undergoing cell death”.

**Q.** And the Kp at 4 h [4]?
**A.** Its Kp at 4 h is about 0.08.

**Q.** And the “activity against Aurora kinase B” value [5]?
**A.** Its value is “certain activity”.

**Q.** What about the larvae deaths ([6]; 10 nM to 20 μM for 3 days, over 400 larvae) of the same molecule?
**A.** The larvae deaths was “no increase in larvae deaths”.

**Q.** What about the morphologic abnormalities ([6]; extremely high concentrations (10 and 20 μM)) of the same molecule?
**A.** The morphologic abnormalities was “edema and body curvature were consistently observed”.

**Q.** And the centriole number ([7]; 100 nM)?
**A.** The centriole number was “slight increase in centrioles' number”.

**Q.** What about the centriole number ([7]; 500 nM) of the same molecule?
**A.** The centriole number was “significant depletion of centrioles”.

**Q.** And the centriole number ([8]; 100 nM)?
**A.** Its centriole number is “increase in centriole's number”.

**Q.** And the centriole number ([8]; 500 nM)?
**A.** Its centriole number is “significant decrease”.

**Q.** And the colony formation [9]?
**A.** The colony formation was “Complete inhibition of colony formation”.

**Q.** And the senescent cells [10]?
**A.** The senescent cells was “significant increase of senescent cells”.

**Q.** What about the degree of polyploidy [11] of the same molecule?
**A.** Its degree of polyploidy is over 8 N.

**Q.** And the IC50 [12]?
**A.** The IC50 was over 500 nM.
